Data from patent publication EP4596574A1, “GLP-1/GCG/GIP TRIPLE-RECEPTOR AGONIST AND USE THEREOF” (Sunshine Lake Pharma Co., Ltd., priority 2022, dated 2024).
Marks after values point to notes of the source that are not given here.

Assays:
[1] = target: T1, GLP-1R (Homo sapiens, UniProt P43220); experiment: In vitro cell activity, cAMP production in HEK293 cells expressing GLP-1R; assay type: cell-based
T1 construct: expressed in transfected cells; host or cells: HEK293 (HEK293-GLP-1R)
Procedure, shortened: (§1)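 cAMP output read as 665/620 nm HTRF ratio after adding cAMP-d2 plus anti-cAMP cryptate and incubating 1 h at room temperature in the dark or overnight at 4 °C. Cells: HEK293 expressing human GLP-1R or GCGR, plated from a 4×10^5 cells/mL suspension. Four-parameter fit gives EC50.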

[2] = target: T2, GCGR (Homo sapiens, UniProt P47871); experiment: In vitro cell activity, cAMP production in HEK293 cells expressing GCGR; assay type: cell-based
T2 construct: expressed in transfected cells; host or cells: HEK293 (HEK293-GCGR)
Procedure, shortened: as §1

[3] = target: T3, GIPR (Homo sapiens, UniProt P48546); experiment: In vitro cell activity, cAMP production in HEK293 cells expressing GIPR; assay type: cell-based
T3 construct: expressed in transfected cells; host or cells: HEK293 (HEK293-GIPR)
T3 sequence (P48546 22-466): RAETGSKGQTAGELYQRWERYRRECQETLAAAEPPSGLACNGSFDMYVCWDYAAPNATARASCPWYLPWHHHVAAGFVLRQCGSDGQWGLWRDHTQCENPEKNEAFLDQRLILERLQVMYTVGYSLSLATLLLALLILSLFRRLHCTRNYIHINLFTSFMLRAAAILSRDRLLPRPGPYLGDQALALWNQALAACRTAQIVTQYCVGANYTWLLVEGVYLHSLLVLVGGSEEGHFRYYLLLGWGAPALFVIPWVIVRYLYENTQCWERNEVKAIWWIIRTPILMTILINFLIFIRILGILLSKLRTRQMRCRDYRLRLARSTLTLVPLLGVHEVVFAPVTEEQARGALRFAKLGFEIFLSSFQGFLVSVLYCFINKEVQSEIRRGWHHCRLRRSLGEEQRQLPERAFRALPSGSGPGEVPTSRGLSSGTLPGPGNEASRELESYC
Procedure, shortened: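 HEK293 cells expressing human GIPR, thawed and diluted to 4×10^5 cells/mL, are stimulated with test compound. cAMP is measured by HTRF competition between cAMP-d2 and anti-cAMP cryptate. EC50 comes from a four-parameter nonlinear fit of signal ratio against concentration.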

[4] = In vivo efficacy evaluation in db/db mouse model (blood glucose); parameters: species or system db/db mice
Protocol: Blood glucose was tested before each administration.

[5] = Long-term repeated administration in diet-induced obese C57BL/6 mice (DIO); assay type: in vivo, C57/BL6 mice
[6] = 10 nmol/kg s.c. once every 3 days, D7
[7] = 10 nmol/kg s.c. once every 3 days, D10
[8] = 10 nmol/kg s.c. once every 3 days, D13
[9] = 10 nmol/kg s.c. once every 3 days, D16
[10] = 10 nmol/kg s.c. once every 3 days, D19
[11] = 10 nmol/kg s.c. once every 3 days, D22
[12] = 10 nmol/kg s.c. once every 3 days, D25
[13] = 10 nmol/kg s.c. once every 3 days, D28
[14] = after 4 weeks of administration
[15] = after 4 weeks of administration, same dose
[16] = long-term administration 10 nmol/kg, 72 h after the last administration
[17] = long-term administration 10 nmol/kg, blood biochemical index

T2 sequence (P47871 26-477, species assumed): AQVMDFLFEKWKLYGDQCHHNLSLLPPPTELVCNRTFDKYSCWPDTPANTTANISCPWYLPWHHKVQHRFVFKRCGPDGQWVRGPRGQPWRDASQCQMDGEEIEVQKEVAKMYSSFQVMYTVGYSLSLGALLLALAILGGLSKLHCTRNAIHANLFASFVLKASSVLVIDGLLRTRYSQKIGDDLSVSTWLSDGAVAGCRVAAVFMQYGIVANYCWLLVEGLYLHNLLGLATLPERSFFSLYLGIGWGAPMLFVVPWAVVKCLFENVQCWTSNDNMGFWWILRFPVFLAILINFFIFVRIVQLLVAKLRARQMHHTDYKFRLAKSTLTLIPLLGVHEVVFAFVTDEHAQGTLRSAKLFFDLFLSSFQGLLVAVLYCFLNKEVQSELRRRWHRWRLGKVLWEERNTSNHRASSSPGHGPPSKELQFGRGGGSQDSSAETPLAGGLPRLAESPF
T1 sequence (P43220 24-463, species assumed): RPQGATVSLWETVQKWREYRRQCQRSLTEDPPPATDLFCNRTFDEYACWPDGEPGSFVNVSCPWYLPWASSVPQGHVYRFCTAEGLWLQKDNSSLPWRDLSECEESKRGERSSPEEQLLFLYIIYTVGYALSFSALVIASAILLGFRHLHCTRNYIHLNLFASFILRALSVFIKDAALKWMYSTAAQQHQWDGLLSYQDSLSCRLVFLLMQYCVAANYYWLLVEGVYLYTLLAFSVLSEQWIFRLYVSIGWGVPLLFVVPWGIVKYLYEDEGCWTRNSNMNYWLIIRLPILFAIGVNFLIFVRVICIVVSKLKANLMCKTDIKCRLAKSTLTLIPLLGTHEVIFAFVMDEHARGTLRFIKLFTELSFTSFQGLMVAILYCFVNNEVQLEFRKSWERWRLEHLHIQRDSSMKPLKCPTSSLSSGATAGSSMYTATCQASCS

CC[C@H](C)[C@H](NC(=O)[C@H](Cc1ccccc1)NC(=O)[C@H](CCC(=O)O)NC(=O)[C@H](CCCNC(=N)N)NC(=O)[C@H](CCC(N)=O)NC(=O)[C@H](CCCNC(=N)N)NC(=O)[C@H](CCCCNC(=O)COCCOCCNC(=O)CC[C@H](NC(=O)CCCCCCCCCCCCCCCCC(=O)O)C(=O)O)NC(=O)[C@H](CCC(=O)O)NC(=O)[C@H](CC(=O)O)NC(=O)[C@H](CC(C)C)NC(=O)[C@H](CC(C)C)NC(=O)[C@@H](NC(=O)[C@H](CO)NC(=O)[C@H](Cc1ccc(O)cc1)NC(=O)[C@H](CC(=O)O)NC(=O)[C@H](CO)NC(=O)[C@@H](NC(=O)[C@](C)(Cc1ccccc1F)NC(=O)[C@@H](NC(=O)CNC(=O)[C@H](Cc1c[nH]cn1)NC(=O)C(C)(C)NC(=O)[C@@H](N)Cc1ccc(O)cc1)[C@@H](C)O)[C@@H](C)O)[C@@H](C)CC)C(=O)N[C@@H](CCC(=O)O)C(=O)N[C@@H](Cc1c[nH]c2ccccc12)C(=O)N[C@@H](CC(C)C)C(=O)N[C@@H](CC(C)C)C(=O)N[C@@H](C)C(=O)NCC(=O)NCC(=O)N1CCC[C@H]1C(=O)N[C@@H](CO)C(=O)N[C@@H](CO)C(=O)NCC(=O)N[C@@H](C)C(=O)N1CCC[C@H]1C(=O)N1CCC[C@H]1C(=O)N1CCC[C@H]1C(=O)N[C@@H](CO)C(=O)O [HEC-PT77]
EC50 [1]: 65.6 pM | EC50 [2]: 144 pM | EC50 [3]: 22.7 pM | blood glucose after administration ([4]; db/db mice, 10 nmol/kg): significantly reduce blood glucose | Random blood glucose (mM) D0 ([4]; db/db mice, 10 nmol/kg s.c. once every three days, D0 (before first dose)): 26.6 ± 4.2 mM | Random blood glucose (mM) D3 ([4]; db/db mice, 10 nmol/kg s.c. once every three days, D3): 15.8 ± 4.0 mM | Random blood glucose (mM) D4 ([4]; db/db mice, 10 nmol/kg s.c. once every three days, D4): 17.8 ± 5.9 mM | Random blood glucose (mM) D5 ([4]; db/db mice, 10 nmol/kg s.c. once every three days, D5): 21.5 ± 5.6 mM | Random blood glucose (mM) D6 ([4]; db/db mice, 10 nmol/kg s.c. once every three days, D6): 24.1 ± 4.6 mM | Random blood glucose (mM) D7 ([4]; db/db mice, 10 nmol/kg s.c. once every three days, D7): 21.9 ± 3.9 mM | Random blood glucose (mM) D10 ([4]; db/db mice, 10 nmol/kg s.c. once every three days, D10): 13.4 ± 5.4 mM | Random blood glucose (mM) D13 ([4]; db/db mice, 10 nmol/kg s.c. once every three days, D13): 15.7 ± 5.4 mM | Random blood glucose (mM) D16 ([4]; db/db mice, 10 nmol/kg s.c. once every three days, D16): 12.7 ± 6.1 mM | Random blood glucose (mM) D19 ([4]; db/db mice, 10 nmol/kg s.c. once every three days, D19): 15.5 ± 4.6 mM | Random blood glucose (mM) D22 ([4]; db/db mice, 10 nmol/kg s.c. once every three days, D22): 15.6 ± 6.1 mM | Random blood glucose (mM) D25 ([4]; db/db mice, 10 nmol/kg s.c. once every three days, D25): 14.2±5.1^a mM | Random blood glucose (mM) 6 h ([4]; db/db mice, 10 nmol/kg s.c., 6 h): 15.9 ± 5.9 mM | Random blood glucose (mM) 24 h ([4]; db/db mice, 10 nmol/kg s.c., 24 h): 8.1 ± 4.5 mM | Random blood glucose (mM) 48 h ([4]; db/db mice, 10 nmol/kg s.c., 48 h): 11.1 ± 6.2 mM | time at which blood glucose levels reached the lowest level ([4]; db/db mice, 10 nmol/kg, after administration): about 24 hours | blood glucose lowering after long-term administration compared with LY3298176 ([4]; db/db mice, long-term repeated administration): not inferior to the positive control LY3298176 | blood glucose reducing effect after administration compared with LY3298176 ([4]; db/db mice, same dose 10 nmol/kg): slightly better than the positive control LY3298176 | blood glucose level after long-term administration ([4]; type II diabetes model db/db mice): significantly improve the blood glucose level | Cumulative food intake (g/pcs) D7 [5, 6]: 8.7 g/pcs | Weight gain rate (%) D7 [5, 6]: -14.9±3.8% | Cumulative food intake (g/pcs) D10 [5, 7]: 11.4 g/pcs | Weight gain rate (%) D10 [5, 7]: -20.9±4.0% | Cumulative food intake (g/each) D13 [5, 8]: 14.4 g/each | Weight gain rate (%) D13 [5, 8]: -24.7±5.5% | Cumulative food intake (g/each) D16 [5, 9]: 19.1 g/each | Weight gain rate (%) D16 [5, 9]: -26.6±5.6% | Cumulative food intake (g/each) D19 [5, 10]: 24.7 g/each | Weight gain rate (%) D19 [5, 10]: -27.7±5.5% | Cumulative food intake (g/each) D22 [5, 11]: 30.6 g/each | Weight gain rate (%) D22 [5, 11]: -28.9±6.4% | Cumulative food intake (g/each) D25 [5, 12]: 36.7 g/each | Weight gain rate (%) D25 [5, 12]: -31.2±6.9% | Cumulative food intake (g/each) D28 [5, 13]: 43.7 g/each | Weight gain rate (%) D28 [5, 13]: -30.4±5.2% | Cumulative food intake (g/each) D30 ([5]; 10 nmol/kg s.c. once every 3 days, D30): 47.5^a g/each | Weight gain rate (%) D31 ([5]; 10 nmol/kg s.c. once every 3 days, D31): -30.2±4.9^a % | Cumulative food intake (g/pcs) D0 ([5]; 10 nmol/kg s.c., D0): 2.4 g/pcs | Weight gain rate (%) D0 ([5]; 10 nmol/kg s.c., D0): 0.0±0.0% | Cumulative food intake (g/pcs) D1 ([5]; 10 nmol/kg s.c., D1): 2.8 g/pcs | Weight gain rate (%) D1 ([5]; 10 nmol/kg s.c., D1): -5.5±0.7% | Cumulative food intake (g/pcs) D2 ([5]; 10 nmol/kg s.c., D2): 3.6 g/pcs | Weight gain rate (%) D2 ([5]; 10 nmol/kg s.c., D2): -7.7±1.9% | Cumulative food intake (g/pcs) D3 ([5]; 10 nmol/kg s.c., D3): 4.7 g/pcs | Weight gain rate (%) D3 ([5]; 10 nmol/kg s.c., D3): -8.4±0.9% | Cumulative food intake (g/pcs) D4 ([5]; 10 nmol/kg s.c., D4): 6.3 g/pcs | Weight gain rate (%) D4 ([5]; 10 nmol/kg s.c., D4): -7.1±3.5% | liver function and blood lipids of DIO mice [5, 14]: significantly improved the liver function and blood lipids | weight loss and food intake inhibition effects compared with Semaglutide [5, 14]: superior to the positive drug Semaglutide | food intake inhibition effect compared with LY3298176 [5, 15]: comparable to those of the same dose of the positive drug LY3298176 | weight loss effect compared with LY3298176 [5, 15]: comparable to those of the same dose of the positive drug LY3298176 | Liver index/% [5, 16]: 2.7±0.0^a % | Liver/g [5, 16]: 0.9±0.1^a g | Weight/g [5, 16]: 31.5±3.2^a g | ALT (U/L) [5, 17]: 29.1±5.8^a U/L | AST (U/L) [5, 17]: 112.0±20.9^a U/L | CHOL (mmol/L) [5, 17]: 3.2±0.5^a mmol/L | TRIGL (mmol/L) [5, 17]: 0.6±0.1^a mmol/L
